Measured values as given in PubChem BioAssay AID2060483 (Molecular Pharmacology Branch, DTP, NCI, 2025).

System: K24384-001-R-PDC complex spheroids, viability
Test: Anticancer human tumor K24384-001-R-PDC patient-derived pancreatic adenocarcinoma cell line growth inhibition [GQUAD]
Conditions: for IC50: curve of first compound; for viability, T/C: stronger effect = lower value
Outline: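 Tumor cells were grown as complex spheroids with HUVEC endothelial cells and mesenchymal stem cells as stroma. G-quadruplex stabilizers were combined with targeted agents over half-log dilutions from near the clinical Cmax, or from 10 microM.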

[1] = second compound 0.0316 µM, first compound 0.0316 µM
[2] = second compound 0.0316 µM, first compound 0.1 µM
[3] = second compound 0.0316 µM, first compound 0.316 µM
[4] = second compound 0.0316 µM, first compound 1 µM
[5] = second compound 0.0316 µM, first compound 3.16 µM
[6] = second compound 0.0316 µM, first compound 10 µM
[7] = second compound 0.1 µM, first compound 0.0316 µM
[8] = second compound 0.1 µM, first compound 0.1 µM
[9] = second compound 0.1 µM, first compound 0.316 µM
[10] = second compound 0.1 µM, first compound 1 µM
[11] = second compound 0.1 µM, first compound 3.16 µM
[12] = second compound 0.1 µM, first compound 10 µM
[13] = second compound 0.316 µM, first compound 0.0316 µM
[14] = second compound 0.316 µM, first compound 0.1 µM
[15] = second compound 0.316 µM, first compound 0.316 µM
[16] = second compound 0.316 µM, first compound 1 µM
[17] = second compound 0.316 µM, first compound 3.16 µM
[18] = second compound 0.316 µM, first compound 10 µM
[19] = second compound 1 µM, first compound 0.0316 µM
[20] = second compound 1 µM, first compound 0.1 µM
[21] = second compound 1 µM, first compound 0.316 µM
[22] = second compound 1 µM, first compound 1 µM
[23] = second compound 1 µM, first compound 3.16 µM
[24] = second compound 1 µM, first compound 10 µM
[25] = second compound 3.16 µM, first compound 0.0316 µM
[26] = second compound 3.16 µM, first compound 0.1 µM
[27] = second compound 3.16 µM, first compound 0.316 µM
[28] = second compound 3.16 µM, first compound 1 µM
[29] = second compound 3.16 µM, first compound 3.16 µM
[30] = second compound 3.16 µM, first compound 10 µM
[31] = second compound 10 µM, first compound 0.0316 µM
[32] = second compound 10 µM, first compound 0.1 µM
[33] = second compound 10 µM, first compound 0.316 µM
[34] = second compound 10 µM, first compound 1 µM
[35] = second compound 10 µM, first compound 3.16 µM
[36] = second compound 10 µM, first compound 10 µM
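Note: spheroids exposed to compounds for seven days.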

CC(C)(O)C1CCC(Nc2ccc3ncc(-c4cccc(C(F)(F)F)c4)n3n2)CC1 (stereo not drawn) + CN(C)c1ccc(Nc2c3ccc(NC(=O)CCN4CCCC4)cc3nc3cc(NC(=O)CCN4CCCC4)ccc23)cc1
IC50 (second compound 0.0316 µM): 2350 nM | IC50 (second compound 0.1 µM): 2030 nM | IC50 (second compound 0.316 µM): 2380 nM | IC50 (second compound 1 µM): 2160 nM | IC50 (second compound 3.16 µM): 1890 nM | IC50 (second compound 10 µM): 1240 nM | viability, T/C [1]: 106% | viability, T/C [2]: 106% | viability, T/C [3]: 102% | viability, T/C [4]: 84.6% | viability, T/C [5]: 37.5% | viability, T/C [6]: 37.2% | viability, T/C [7]: 105% | viability, T/C [8]: 104% | viability, T/C [9]: 96.4% | viability, T/C [10]: 79% | viability, T/C [11]: 30.5% | viability, T/C [12]: 33.4% | viability, T/C [13]: 104% | viability, T/C [14]: 98.1% | viability, T/C [15]: 98% | viability, T/C [16]: 94.6% | viability, T/C [17]: 35.4% | viability, T/C [18]: 34.3% | viability, T/C [19]: 106% | viability, T/C [20]: 109% | viability, T/C [21]: 109% | viability, T/C [22]: 82% | viability, T/C [23]: 28.6% | viability, T/C [24]: 39.6% | viability, T/C [25]: 100% | viability, T/C [26]: 101% | viability, T/C [27]: 107% | viability, T/C [28]: 77.4% | viability, T/C [29]: 26.2% | viability, T/C [30]: 29.8% | viability, T/C [31]: 94.4% | viability, T/C [32]: 98% | viability, T/C [33]: 77.9% | viability, T/C [34]: 61.5% | viability, T/C [35]: 16.9% | viability, T/C [36]: 16.9%

CC1COCCN1c1cc(C2(O)CC3CCC(C2)O3)c2cnn(-c3ccn[nH]3)c2n1 (stereo not drawn) + CN(C)c1ccc(Nc2c3ccc(NC(=O)CCN4CCCC4)cc3nc3cc(NC(=O)CCN4CCCC4)ccc23)cc1
IC50 (second compound 0.0316 µM): 103 nM | IC50 (second compound 0.1 µM): 74.6 nM | IC50 (second compound 0.316 µM): 74.3 nM | IC50 (second compound 1 µM): 68.6 nM | IC50 (second compound 3.16 µM): 61.6 nM | IC50 (second compound 10 µM): 119 nM | viability, T/C [1]: 56.5% | viability, T/C [2]: 52% | viability, T/C [3]: 33.5% | viability, T/C [4]: 23.8% | viability, T/C [5]: 25.4% | viability, T/C [6]: 14.3% | viability, T/C [7]: 68% | viability, T/C [8]: 43.9% | viability, T/C [9]: 29.6% | viability, T/C [10]: 25.1% | viability, T/C [11]: 26.6% | viability, T/C [12]: 15% | viability, T/C [13]: 70.3% | viability, T/C [14]: 44% | viability, T/C [15]: 24.6% | viability, T/C [16]: 26% | viability, T/C [17]: 27.2% | viability, T/C [18]: 14.1% | viability, T/C [19]: 62.8% | viability, T/C [20]: 45% | viability, T/C [21]: 27.1% | viability, T/C [22]: 27.7% | viability, T/C [23]: 27.3% | viability, T/C [24]: 13.3% | viability, T/C [25]: 63.2% | viability, T/C [26]: 40.5% | viability, T/C [27]: 24.9% | viability, T/C [28]: 27.9% | viability, T/C [29]: 24.9% | viability, T/C [30]: 12.9% | viability, T/C [31]: 76.2% | viability, T/C [32]: 48.5% | viability, T/C [33]: 35.7% | viability, T/C [34]: 32.5% | viability, T/C [35]: 25.4% | viability, T/C [36]: 12.3%

C#Cc1c(F)ccc2cc(O)cc(-c3ncc4c(N5CC6CCC(C5)N6)nc(OCC56CCCN5CC(F)C6)nc4c3F)c12 (stereo not drawn) + Cc1cnc(CNC(=O)c2c(=O)c3ccc(N4CCCN(C)CC4)nc3n3c2sc2ccccc23)cn1
IC50 (second compound 0.0316 µM): 966 nM | IC50 (second compound 0.1 µM): 494 nM | IC50 (second compound 0.316 µM): 91.8 nM | IC50 (second compound 1 µM): < 31.6 nM | IC50 (second compound 3.16 µM): < 31.6 nM | IC50 (second compound 10 µM): < 31.6 nM | viability, T/C [1]: 72% | viability, T/C [2]: 83.7% | viability, T/C [3]: 88.4% | viability, T/C [4]: 49% | viability, T/C [5]: 31.2% | viability, T/C [6]: 23.1% | viability, T/C [7]: 68.5% | viability, T/C [8]: 65.3% | viability, T/C [9]: 54% | viability, T/C [10]: 41.6% | viability, T/C [11]: 31.9% | viability, T/C [12]: 20.4% | viability, T/C [13]: 52.3% | viability, T/C [14]: 48% | viability, T/C [15]: 51.6% | viability, T/C [16]: 31.7% | viability, T/C [17]: 32.7% | viability, T/C [18]: 15.5% | viability, T/C [19]: 34.7% | viability, T/C [20]: 42.6% | viability, T/C [21]: 41.5% | viability, T/C [22]: 29% | viability, T/C [23]: 27% | viability, T/C [24]: 14.1% | viability, T/C [25]: 29% | viability, T/C [26]: 36.7% | viability, T/C [27]: 33.9% | viability, T/C [28]: 34.9% | viability, T/C [29]: 18.4% | viability, T/C [30]: 11.9% | viability, T/C [31]: 0.13% | viability, T/C [32]: 0.18% | viability, T/C [33]: 0.23% | viability, T/C [34]: 0.2% | viability, T/C [35]: 0.23% | viability, T/C [36]: 0.2%

Cc1cccc(N(C)C(=O)C2C(O)CCN2c2nc(C)cc(C(F)(F)F)c2C#N)c1 (stereo not drawn) + Cc1cnc(CNC(=O)c2c(=O)c3ccc(N4CCCN(C)CC4)nc3n3c2sc2ccccc23)cn1
IC50 (second compound 0.0316 µM): > 10000 nM | IC50 (second compound 0.1 µM): > 10000 nM | IC50 (second compound 0.316 µM): 31.6 nM | IC50 (second compound 1 µM): < 31.6 nM | IC50 (second compound 3.16 µM): < 31.6 nM | IC50 (second compound 10 µM): < 31.6 nM | viability, T/C [1]: 105% | viability, T/C [2]: 81.5% | viability, T/C [3]: 86.5% | viability, T/C [4]: 74.2% | viability, T/C [5]: 95.6% | viability, T/C [6]: 107% | viability, T/C [7]: 70% | viability, T/C [8]: 73.8% | viability, T/C [9]: 57.7% | viability, T/C [10]: 69.6% | viability, T/C [11]: 72.9% | viability, T/C [12]: 71.6% | viability, T/C [13]: 53.3% | viability, T/C [14]: 56% | viability, T/C [15]: 49.2% | viability, T/C [16]: 57.4% | viability, T/C [17]: 74.9% | viability, T/C [18]: 55.8% | viability, T/C [19]: 44.1% | viability, T/C [20]: 44.4% | viability, T/C [21]: 50.5% | viability, T/C [22]: 44.6% | viability, T/C [23]: 57.5% | viability, T/C [24]: 41.7% | viability, T/C [25]: 38.1% | viability, T/C [26]: 42% | viability, T/C [27]: 41.3% | viability, T/C [28]: 49.3% | viability, T/C [29]: 39.9% | viability, T/C [30]: 41.5% | viability, T/C [31]: 40.6% | viability, T/C [32]: 37.4% | viability, T/C [33]: 43.3% | viability, T/C [34]: 44.4% | viability, T/C [35]: 26.2% | viability, T/C [36]: 36.4%
